Several values for one entry are separate records, joined by “and”; a condition that tells them apart may be missing. Identical values can stand only once.
Test system: K-562 leukemia growth, % test/control
Assay: Anticancer human tumor K-562 cell line growth inhibition;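 further: spheroids exposed to compounds for 7 days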;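 on viability, T/C: 100% = DMSO vehicle wells and lower values mean fewer viable cells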
Details: spheroids with HUVEC and MSC; for viability, T/C: stronger effect = lower value
Description: Multicellular complex tumor spheroid response to LSD1 Inhibitor Iadademstat in combination with a variety of drugs and investigational agents in selected tumor cell lines
The current study was undertaken to assess response to LSD1 inhibitors in combination with standard-of-care drugs and investigational agents in solid tumor complex spheroid models as well as in the K-562 leukemia. Complex spheroids include a stromal component modeled by human endothelial cells (HUVEC) and fibroblasts modeled by human mesenchymal stem cells (MSCs). The concentration ranges selected for each drug and investigational agent were based upon clinically achievable concentrations if the clinical Cmax of the agent was known.
Compounds. The drugs and investigational agents used in this study are listed on Table 1. All of the agents used, including staurosporine (NSC755774) and gemcitabine (NSC613327), were obtained from the Developmental Therapeutics Program, NCI. FDA-approved anticancer drugs are available from the NCI at http://dtp.nci.nih.gov/branches/dscb/oncology_drugset_explanation.html. Drugs and investigational agents were >95% pure by proton nuclear magnetic resonance (NMR) and liquid chromatography/mass spectrometry (LC/MS). Stock solutions were prepared at 400x in DMSO, stored at -70 degrees C, and diluted in fresh medium prior to their use. The final concentration of DMSO in cell culture wells never exceeded 0.25% (v/v). The FDA-approved anticancer drug set is available from the Developmental Therapeutics Program at https://dtp.cancer.gov/organization/dscb/obtaining/available_plates.htm. All drugs and investigational agents were tested over a range starting from a high concentration at or near the clinical Cmax and decreasing in half-log increments. If the clinical Cmax for an agent had not been determined, the highest concentration tested was 10 microM.
Cell Lines. The patient-derived cancer cell (PDC) lines: 292921-168-R-J2-PDC, K24384-001-R-PDC, and 521955-158-R2-J5-PDC pancreatic carcinomas, 556581-035-R-J1 ovarian carcinoma, 324938-238-R-J1-PDC, 855422-203-R-J1-PDC and 883617-216-R-J1-PDC urothelial bladder carcinomas, 743489-274-T-PDC renal cell carcinoma, 138582-R-J1 Merkel cell tumor, K60290-347-R-J1 and K57222-313-R-J1-PDC glioblastomas, 653999-131-R-J2-PDC, LG0703-F948-PDC, and 349418-098-R-PDC non-small cell lung carcinomas, 885512-296-R-J2-PDC, 171881-019-R-J1-PDC breast carcinomas and 186277-243-T-J2-PDC and 233499-124-R-J2-PDC colon carcinomas were obtained from the NCI Patient-Derived Models Repository (PDMR, https://pdmr.cancer.gov). The established cell lines NCI/ADR-RES (RRID:CVCL_14520 and OVCAR-5 (RRID:CVCL_1628) ovarian carcinomas, 786-O (RRID:CVCL_1051) and A498 (RRID:CVCL_A498) renal cell carcinoma, NCI-H211 (ATCC, cat. CRL-5824; RRID:CVCL_1529), NCI-H196 (ATCC, cat. CRL-5823, RRID:CVCL_1509), SW 1271 (ATCC, cat. CRL-2177, RRID:CVCL_1716) and NCI-H1876 (ATCC, cat. CRL-5902, RRID:CVCL_1503) small cell lung carcinomas, MDA-MB-231 (RRID:CVCL_0062) and MDA-MB-468 (RRID:CVCL_0419)breast carcinomas (10-12). Pooled donor human umbilical vein endothelial cells (HUVEC, Lonza, cat. CC-2519) and human mesenchymal stem cells (hMSC, Lonza, cat. PT-2501) were purchased from Lonza (Walkersville, MD).
Cell Culture. All cells were maintained in an incubator at 37 degrees C and 5% CO2 with 95% humidity. The PDC lines were cultured according to standard operating procedures established by the NCI PDMR (https://pdmr.cancer.gov). Briefly all PDCs were thawed and cultured in Matrigel-coated flasks prepared with a working solution of 1X Ham's F-12 nutrient mix, without supplementation (Invitrogen, Waltham, MA, cat. 11765054), 100 U/mL penicillin-streptomycin (Invitrogen, cat. 15140122), and 2.5% Matrigel (Corning Inc., Corning, NY, cat. 354248) for the first three passages. […]

| SMILES | viability, T/C (compound 0.00316 µM) | viability, T/C (compound 0.01 µM) | viability, T/C (compound 0.0316 µM) | viability, T/C (compound 0.1 µM) | IC50 (curve of compound) | viability, T/C (compound 0.316 µM) | viability, T/C (compound 1 µM) | viability, T/C (compound 3.16 µM) | viability, T/C (compound 0.00949 µM) | viability, T/C (compound 0.03 µM) | viability, T/C (compound 0.0949 µM) | viability, T/C (compound 0.3 µM) | other results |
| --- | --- | --- | --- | --- | --- | --- | --- | --- | --- | --- | --- | --- | --- |
| CC(C)CC(NC(=O)C(Cc1ccccc1)NC(=O)c1cnccn1)B(O)O (centres undefined) | 18.8% and 1.3% | 1.39% and 0.58% | 1.89% and 0.51% | 3.68% and 0.49% | 2 nM and 0.584 nM | – | – | – | – | – | – | – | viability, T/C (compound 0.000316 µM): 98.7% and 102% |
| CC(C)CC(NC(=O)CNC(=O)c1cc(Cl)ccc1Cl)B1OC(=O)CC(CC(=O)O)(C(=O)O)O1 (centres undefined) | 95.6% and 97.4% | 74.2% and 68.6% | 24.2% and 13.3% | 6.61% and 2.45% | 17.4 nM and 14.8 nM | – | – | – | – | – | – | – | viability, T/C (compound 0.000316 µM): 103% and 97%; viability, T/C (compound 0.001 µM): 97.5% and 95.5% |
| CC(C)c1c(-c2ccccc2)nc2c(C#N)c[nH]n2c1=O | – | – | 104% and 100% | 98.4% and 97% | > 10000 nM | 102% and 101% | 99% and 102% | 106% and 109% | – | – | – | – | viability, T/C (compound 10 µM): 107% and 108% |
| CC1(C)CCC(CN2CCN(c3ccc(C(=O)NS(=O)(=O)c4ccc(NCC5CCOCC5)c([N+](=O)[O-])c4)c(Oc4cnc5[nH]ccc5c4)c3)CC2)=C(c2ccc(Cl)cc2)C1 | – | – | 102% and 101% | 103% and 107% | 7520 nM and 4730 nM | 100% and 108% | 109% and 117% | 117% and 75.7% | – | – | – | – | – |
| CC1COCCN1c1cc(-c2ccnn2C)c2ccnc(-c3ccn[nH]3)c2n1 (centres undefined) | 88.3% and 28.6% | 59.4% and 15.3% | 19.1% and 3.08% | 5.33% and 2.16% | 13.1 nM and < 3.16 nM | 3.07% and 2.39% | 2.84% and 2.02% | – | – | – | – | – | – |
| CC1COCCN1c1cc(C2(S(C)(=N)=O)CC2)nc(-c2ccnc3[nH]ccc23)n1 (centres undefined) | – | – | 91.2% and 107% | 89.3% and 102% | 589 nM and 1550 nM | 74.7% and 91.8% | 29.1% and 74.6% | 5.34% and 10.9% | – | – | – | – | viability, T/C (compound 10 µM): 2.87% and 2.76% |
| CCN(c1cc(-c2ccc(CN3CCOCC3)cc2)cc(C(=O)NCc2c(C)cc(C)[nH]c2=O)c1C)C1CCOCC1 | – | – | – | – | > 3000 nM and 2140 nM | – | – | – | 110% and 112% | 107% and 112% | 105% and 114% | 105% | viability, T/C (compound 0.949 µM): 107% and 76.7%; viability, T/C (compound 3 µM): 104% and 38.9% |
| CC[C@@]1(O)C(=O)OCc2c1cc1n(c2=O)Cc2cc3c(CN(C)C)c(O)ccc3nc2-1 | 34.6% and 58.8% | 32.6% and 50.7% | 20.8% and 24.8% | 11.2% | 2.23 nM and 7.98 nM | – | – | – | – | – | – | – | viability, T/C (compound 0.000316 µM): 98.4% and 100%; viability, T/C (compound 0.001 µM): 71.1% and 99.8% |
| CCc1c2c(nc3ccc(O)cc13)-c1cc3c(c(=O)n1C2)COC(=O)[C@]3(O)CC | – | – | – | – | < 0.949 nM | – | – | – | 5.78% and 4.21% | 2.47% and 1.25% | 0.78% and 0.75% | 0.65% and 0.82% | viability, T/C (compound 0.000949 µM): 15% and 13.4%; viability, T/C (compound 0.003 µM): 10.5% and 9.22% |
| COc1cc(C2c3cc4c(cc3C(OC3OC5COC(C)OC5C(O)C3O)C3COC(=O)C23)OCO4)cc(OC)c1O (centres undefined) | – | – | – | – | 29 nM and 52.1 nM | – | – | – | 89.7% and 84.4% | 48.8% and 36.5% | 23.6% and 39.6% | 41% and 42.6% | viability, T/C (compound 0.949 µM): 34.9% and 9.87%; viability, T/C (compound 3 µM): 8.88% and 1.67% |
| COc1cc(Nc2ncc3c(n2)-c2ccc(Cl)cc2C(c2c(F)cccc2OC)=NC3)ccc1C(=O)O | 83.3% and 43.7% | 41.7% and 44.3% | 40% and 40.6% | 39.9% and 40.8% | 8 nM and < 3.16 nM | 37.6% and 11.2% | – | – | – | – | – | – | – |
| COc1ccc([C@@H](O)c2cc(-c3ncnc4cc(N5CCOCC5)ccc34)c(F)cc2Cl)nn1 | – | – | 100% and 102% | 104% and 98.7% | 8260 nM and 8030 nM | 97% and 95.4% | 96.4% and 97% | 104% and 99.9% | – | – | – | – | viability, T/C (compound 10 µM): 40% and 38.6% |
| Cn1ncnc1C1c2n[nH]c(=O)c3cc(F)cc(c23)NC1c1ccc(F)cc1 (centres undefined) | 98.8% and 96.9% | 98.7% and 102% | 99.4% and 102% | 96.7% and 97.5% | > 100 nM | – | – | – | – | – | – | – | viability, T/C (compound 0.000316 µM): 104% and 106%; viability, T/C (compound 0.001 µM): 95.2% and 105% |
| NC1CC1c1ccc(-c2cccc(O)c2)cc1 (centres undefined) | – | – | – | 109% | – | 104% [middle of 25 runs] | 99.9% [middle of 25 runs] | 100% [middle of 24 runs] | – | – | – | – | viability, T/C (compound 10 µM): 98.8% [middle of 25 runs]; IC50 (compound alone, run of 02/01/2022): > 10000 nM |
| NC1CCC(NC2CC2c2ccccc2)CC1 (centres undefined) | – | – | – | 99% [middle of 24 runs] | – | 100% and 101% and 98.9% | 103% [middle of 25 runs] | 103% [middle of 25 runs] | – | – | – | – | viability, T/C (compound 10 µM): 100% [middle of 23 runs]; IC50 (compound alone, run of 01/18/2022): > 10000 nM |
| NS(=O)(=O)OCC1CC(n2ccc3c(NC4CCc5ccccc54)ncnc32)CC1O (centres undefined) | – | – | – | – | 47.6 nM and < 9.49 nM | – | – | – | 65.6% and 51.5% | 47% and 34.4% | 49.3% and 36.1% | 34.9% and 20.1% | viability, T/C (compound 0.949 µM): 18% and 13.5%; viability, T/C (compound 3 µM): 11.5% and 4.24% |
| Nc1ccccc1NC(=O)c1ccc(CNC(=O)OCc2cccnc2)cc1 | – | – | – | – | 449 nM and 188 nM | – | – | – | 107% and 112% | 101% and 110% | 103% and 106% | 74.6% and 11.2% | viability, T/C (compound 0.949 µM): 4.47% and 0.45%; viability, T/C (compound 3 µM): 0.26% and 0.16% |
| Nc1ccn(C2OC(CO)C(O)C2(F)F)c(=O)n1 (centres undefined) | – | – | – | – | – | – | – | – | 14.6% and 51.5% | 13.6% and 21% | 15.1% and 19.3% | 13.9% and 16.9% | viability, T/C (compound 0.000949 µM): 45.4% and 98.6%; viability, T/C (compound 0.003 µM): 18.2% and 91.7% |
| Nc1ncn(C2CC(O)C(CO)O2)c(=O)n1 (centres undefined) | 94.7% and 99.7% | 93.9% and 96.9% | 88.5% and 96.1% | 79.7% and 89.2% | > 1000 nM | 72.3% and 74.6% | 67.1% and 75.9% | – | – | – | – | – | – |
| Nc1ncn(C2CC(O)C(CO)S2)c(=O)n1 (centres undefined) | – | – | – | – | 185 nM and 106 nM | – | – | – | 109% and 105% | 94.4% and 87.5% | 67.2% and 53.8% | 37.7% and 19.5% | viability, T/C (compound 0.000949 µM): 111% and 100%; viability, T/C (compound 0.003 µM): 109% and 106% |
| O=C(C=Cc1cccc(S(=O)(=O)Nc2ccccc2)c1)NO | – | – | – | – | 483 nM and 235 nM | – | – | – | 100% and 96% | 98.5% and 97.4% | 101% and 98.3% | 83.7% and 5.37% | viability, T/C (compound 0.949 µM): 2.11% and 0.8% |
| O=C(C=Cn1cnc(-c2cc(C(F)(F)F)cc(C(F)(F)F)c2)n1)NNc1cnccn1 | 102% and 101% | 103% | 92.1% and 101% | 37.1% and 58.4% | 76.3 nM and 123 nM | 4.12% and 9.78% | 1.22% and 1.15% | – | – | – | – | – | – |
| O=C(c1cc(Cc2n[nH]c(=O)c3ccccc23)ccc1F)N1CCN(C(=O)C2CC2)CC1 | – | – | 97% and 101% | 99.8% and 101% | 9470 nM and > 10000 nM | 99% and 103% | 97.1% and 101% | 88.5% and 94.2% | – | – | – | – | viability, T/C (compound 10 µM): 48.1% and 50.1% |
